Reference: PubChem BioAssay (NCI)
Several values for one entry are separate records, joined by “and”; a condition that tells them apart may be missing. Equal values may be shown once.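 All cell lines were grown in 96-well plates and treated with compound for 48 hours. Abbreviation: GI50, concentration required for 50% inhibition of growth. TGI: total growth inhibition.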

Columns and labels:
Experiment in all cases: NCI anticancer screen, dose series, 48 h
786-0 renal = test system: 786-0 renal
BT-549 breast = test system: BT-549 breast
HCT-15 colon = test system: HCT-15 colon
LOX IMVI melanoma = test system: LOX IMVI melanoma
SK-MEL-2 melanoma = test system: SK-MEL-2 melanoma
SK-MEL-5 melanoma = test system: SK-MEL-5 melanoma
SN12C renal = test system: SN12C renal
HL-60(TB) leukemia = test system: HL-60(TB) leukemia

Compound	GI50 (786-0 renal)	TGI (786-0 renal)	GI50 (BT-549 breast)	TGI (BT-549 breast)	GI50 (HCT-15 colon)	TGI (HCT-15 colon)	GI50 (LOX IMVI melanoma)	TGI (LOX IMVI melanoma)	GI50 (SK-MEL-2 melanoma)	TGI (SK-MEL-2 melanoma)	GI50 (SK-MEL-5 melanoma)	TGI (SK-MEL-5 melanoma)	GI50 (SN12C renal)	TGI (SN12C renal)	GI50 (HL-60(TB) leukemia)	TGI (HL-60(TB) leukemia)
C[C@H](CCCNCCCNCCCN)[C@H]1CC[C@H]2[C@@H]3[C@H](OCCCN)C[C@H]4C[C@H](OCCCN)CC[C@]4(C)[C@H]3C[C@H](OCCCN)[C@]12C	0.824 µM	5.49 µM	0.923 µM	5.1 µM	3.14 µM	> 100 µM	0.888 µM	9.41 µM	47.5 µM	> 100 µM	0.626 µM	3.29 µM	1.61 µM	24.2 µM		
O=c1c2c3c(sc2nc(N/N=C/c2ccc(Br)cc2)n1Cc1ccccc1)CCCC3	3.07 µM	> 100 µM	8.02 µM	> 100 µM	8.98 µM	> 100 µM	19.3 µM	> 100 µM	6.08 µM	> 100 µM	5.88 µM	> 100 µM			9.26 µM	> 100 µM
COC1CC(NC(=O)C(F)(F)F)C(OC(C)=O)C(C)O1 (stereo not given)		> 100 µM		> 100 µM		> 100 µM		> 100 µM		> 100 µM		> 100 µM		> 100 µM		> 100 µM
O=C(NN=C1CCCCC1)c1[nH]c2ccc(F)cc2c1-c1ccccc1	44.2 µM	> 100 µM	57.4 µM	> 100 µM	15.6 µM	50.9 µM	25.2 µM	> 100 µM	> 100 µM	> 100 µM	34.3 µM	> 100 µM	28.6 µM	84.8 µM	18.2 µM	52.7 µM
CC(=O)Oc1cc2c(OC(C)=O)c(-c3c(C)cc4c(C(C)C)c(OC(C)=O)c(OC(C)=O)cc4c3OC(C)=O)c(C)cc2c(C(C)C)c1OC(C)=O	7.26 µM and 6.91 µM and 11.4 µM	20.8 µM and 16.5 µM and 35.4 µM	4.07 µM and 5.16 µM and 9.94 µM	9.05 µM and 10.2 µM and 26.6 µM	4.94 µM and 5.21 µM and 7.97 µM	9.98 µM and 10.5 µM and 18.2 µM	4.4 µM and 5.26 µM and 17.3 µM	8.52 µM and 11.3 µM and 32 µM	7.83 µM and 10.8 µM	31.8 µM	17.4 µM and 4.66 µM and 7.79 µM	33.2 µM and 9 µM and 17 µM	1.21 µM and 1.22 µM and 6.11 µM	2.44 µM and 8.04 µM and 12.8 µM	13.1 µM and 3.07 µM and 4.8 µM	33.2 µM and 9.99 µM and 16.2 µM
O=c1c2ccccc2c2ccccc2c(=O)n1Cc1ccc2c(c1)OCO2		> 100 µM		88.7 µM		> 100 µM		> 100 µM		> 80.2 µM		> 100 µM		> 100 µM		52 µM
COc1cnc2c(c1)C(=O)c1c-2n(CCCNC(C)C)c(=O)c2cc(F)ccc12	0.116 µM	0.482 µM	0.655 µM	4.09 µM	0.163 µM	1.32 µM	0.114 µM	0.249 µM	0.51 µM	1.92 µM	0.156 µM	0.496 µM	0.164 µM	0.831 µM	0.161 µM	0.615 µM
O=C(NO)c1ccc(Cn2c(=O)n(-c3ccccc3F)c(=O)c3ccccc32)cc1	1.82 µM	3.65 µM	1.9 µM	4.13 µM	1.92 µM	4.42 µM	1.71 µM	3.2 µM	1.29 µM	3.43 µM	1.51 µM	2.96 µM			3.48 µM	> 100 µM
CCCCCCCCCCCCOC1C(C(CC(=O)N2CCN(c3cccc(C(F)(F)F)c3)CC2)NS(=O)(=O)c2cc(Cl)cc(Cl)c2)OC2OC(C)(C)OC21 (stereo not given)	> 100 µM	> 100 µM	> 100 µM	> 100 µM	> 100 µM	> 100 µM	> 100 µM	> 100 µM	> 100 µM	> 100 µM	> 100 µM	> 100 µM	> 100 µM	> 100 µM	> 100 µM	> 100 µM
Cc1cc(O)cc(C)c1/C=C/c1cncc(-c2nn[nH]n2)c1	> 25 µM	> 25 µM	> 25 µM	> 25 µM	> 25 µM	> 25 µM	> 25 µM	> 25 µM	> 25 µM	> 25 µM	> 25 µM	> 25 µM	> 25 µM	> 25 µM	> 25 µM	> 25 µM
Cc1cn2c(/C=N/N=C(N)N)c(-c3cccnc3)nc2s1	12.9 µM	26.8 µM	12.8 µM	30.9 µM	4.39 µM	18.1 µM	12.9 µM	28.7 µM	18.7 µM	45.5 µM	2.68 µM	13.7 µM			3.8 µM	53.8 µM
CCOC(=O)/C(=C(/C)NCC(C)C)c1cc(O)c(O)c2c(C)cc(=O)[nH]c12	12.2 µM	46.4 µM	6.22 µM	66.7 µM	2.2 µM	> 100 µM	5.78 µM	> 100 µM	5.92 µM	> 100 µM	11.1 µM	> 100 µM	4.96 µM	> 100 µM	2.63 µM	> 100 µM
COc1ccc2c(c1OC)OCC(CN(C)C)C2=O (stereo not given)		25.9 µM		38.7 µM		36.5 µM		31.2 µM		30.5 µM		31.6 µM		34 µM		7.14 µM
O=C(NCc1ccco1)c1ccc(NC2=C(Cl)C(=O)N(Cc3ccccc3)C2=O)cc1	12.6 µM	28.2 µM	17.9 µM	36.5 µM	17.7 µM	74.4 µM	> 100 µM	> 100 µM	23.8 µM	55.8 µM	27.4 µM	73.4 µM	17.4 µM	40.6 µM	17.4 µM	33.8 µM
COc1ccc(-c2cc(-c3ccc(O)cc3)nc3n[nH]c(N)c23)cc1	26 µM	74.3 µM	15.5 µM	32.6 µM	25.9 µM	95 µM	17 µM	36.4 µM	16.4 µM	35.1 µM	15.1 µM	28.8 µM	19.2 µM	36.5 µM		
CCN(CC)CCCC(C)N=c1cc(Nc2cc(=NC(C)CCCN(CC)CC)c3cc(OC)ccc3o2)oc2ccc(OC)cc12 (stereo not given)	2.26 µM	8.01 µM	3.16 µM	9.49 µM	0.851 µM	2.33 µM	1.02 µM	2.29 µM	1.35 µM	2.71 µM	0.731 µM	1.39 µM	1.4 µM	11.8 µM	2.66 µM	13.2 µM

Compound	GI50 (786-0 renal)	TGI (786-0 renal)	GI50 (BT-549 breast)	TGI (BT-549 breast)	GI50 (HCT-15 colon)	TGI (HCT-15 colon)	GI50 (LOX IMVI melanoma)	TGI (LOX IMVI melanoma)	GI50 (SK-MEL-2 melanoma)	TGI (SK-MEL-2 melanoma)	GI50 (SK-MEL-5 melanoma)	TGI (SK-MEL-5 melanoma)	GI50 (SN12C renal)	TGI (SN12C renal)	GI50 (HL-60(TB) leukemia)	TGI (HL-60(TB) leukemia)
N#CS.N=C=S.N=C=S.[Cu+2].[NH2-].[NH2-].[NH2-].[NH2-].c1ccc2ncccc2c1	> 100 µM	> 100 µM	> 100 µM	> 100 µM	> 100 µM	> 100 µM	43.3 µM	> 100 µM	> 100 µM	> 100 µM	17.8 µM	38.7 µM	> 100 µM	> 100 µM	> 100 µM	> 100 µM
CC1(C)CCC(C)(C)c2c1ccc(O)c2Cc1c(O)ccc2c1C(C)(C)CCC2(C)C		3.61 µM		5.2 µM		3.98 µM		3.39 µM		3.19 µM		3.51 µM		3.31 µM		5.46 µM
O=C(CCC(C(=O)c1ccccc1)c1ccccc1)c1ccccc1 (stereo not given)	49.4 µM	> 100 µM	7.92 µM	86.7 µM	4.92 µM	> 100 µM	20.7 µM	> 100 µM	7.07 µM	46.7 µM	9.29 µM	34.3 µM	20.2 µM	> 100 µM	4.72 µM	55.9 µM
CC(=O)[C@@]1(O)[C@H](C)C[C@H]2[C@@H]3C=C(C)C4=Cc5c(cnn5-c5ccccc5)C[C@]4(C)[C@H]3[C@@H](O)C[C@@]21C	2.23 µM	5.2 µM	1.29 µM	5.17 µM	0.81 µM	2.66 µM	1.69 µM	4.6 µM	2.45 µM	5.88 µM	1.61 µM	4.21 µM	1.4 µM	12.4 µM	3.62 µM	41.9 µM
Cc1ncsc1-c1ccc(CNC(=O)[C@@H]2C[C@@H](O)CN2C(=O)[C@@H](NC(=O)C2(C#N)CC2)C(C)(C)C)cc1	> 100 µM	> 100 µM	> 100 µM	> 100 µM	> 100 µM	> 100 µM	> 100 µM	> 100 µM	> 100 µM	> 100 µM	> 100 µM	> 100 µM	> 100 µM	> 100 µM	> 100 µM	> 100 µM
COc1cc(OC)c(NC(=O)c2cc3ccccc3cc2O)cc1Cl	4.51 µM	> 100 µM	4.33 µM	66 µM	3.38 µM	19.4 µM	2.69 µM	9.37 µM	2.25 µM	6.14 µM	2.4 µM	6.34 µM	2.26 µM	7.67 µM	1.91 µM	7.99 µM
CCOC(=O)[C@@H](C)C[C@H](Cc1ccccc1)NC(=O)c1csc([C@@H](C[C@H](C(C)C)N(C)C(=O)[C@H](CC)NC(=O)[C@H]2CCCCN2C)OC(C)=O)n1	0.00387 µM	> 16.7 µM	0.00368 µM	0.143 µM	0.00628 µM	> 16.7 µM	0.00842 µM	> 16.7 µM	< 0.00167 µM	> 16.7 µM	< 0.00167 µM	0.0432 µM	0.00515 µM	> 16.7 µM	< 0.00167 µM	0.0114 µM
C=C1C(=O)O[C@@H]2C1C[C@@H](O)C(=C)CC/C=C(\C)CCC[C@H](C)[C@H]2OC(C)=O (stereo not given in full)	4.84 µM	16.3 µM	2.73 µM	7.46 µM	3.04 µM	14 µM	2.14 µM	6.07 µM	12.9 µM	31.1 µM	2.76 µM	10.8 µM	3.5 µM	15.3 µM		
CCCCN(CCCC)CCCn1c(=O)c2c3ccccc3n(C)c2n2nnc(-c3ccccc3)c12	39 µM	> 100 µM			20.7 µM	> 100 µM	28.4 µM	> 100 µM	> 100 µM	> 100 µM	31.9 µM	> 100 µM	19.4 µM	94.8 µM	2.54 µM	41.7 µM
CN(C)CCOC(c1ccccc1)c1ccccc1	35.1 µM	49.8 µM and > 100 µM	33.7 µM	48.4 µM	36.7 µM	51.5 µM and > 100 µM		> 100 µM	35.5 µM	51.6 µM and > 100 µM	15.7 µM	28.2 µM and > 100 µM	34.6 µM	50.2 µM and > 100 µM		> 100 µM
COc1ccc(-c2nc(N3CCN(C(=O)C4CCCCC4)CC3)c3c4c(sc3n2)CCCC4)cc1	38.2 µM	> 100 µM	57.5 µM	> 100 µM	> 100 µM	> 100 µM	> 100 µM	> 100 µM			68.9 µM	> 100 µM	> 100 µM	> 100 µM	70.5 µM	> 100 µM
O=C1OC(c2ccccc2)(c2cc(Br)c(O)c(Br)c2)c2ccccc21 (stereo not given)	19.3 µM	38.7 µM			25.8 µM	76.2 µM	16.3 µM	33 µM			14.5 µM	30.7 µM	50 µM	> 100 µM	22.8 µM	67.8 µM
O=C1c2ccccc2-c2c1c1c(O)cccc1n2-c1ccccc1	62.2 µM	> 100 µM			> 100 µM	> 100 µM	> 100 µM	> 100 µM	> 100 µM	> 100 µM	> 100 µM	> 100 µM	> 100 µM	> 100 µM		
OCC1OC(n2cnc3c(Cl)nc(Cl)cc32)C(O)C1O (stereo not given)	> 100 µM	> 100 µM	> 100 µM	> 100 µM	> 100 µM	> 100 µM							> 100 µM	> 100 µM	> 100 µM	> 100 µM
Cc1ccc(-c2nc(N3CCCNCC3)c3oc(-c4ccccc4)nc3n2)cc1	1.43 µM	2.81 µM			1.4 µM	2.77 µM	1.71 µM	3.2 µM	2.03 µM	3.77 µM	1.6 µM	3.03 µM	1.69 µM	3.21 µM	1.35 µM	3.17 µM
